Key:
[1] = system: subjects who had NAFLD in 31 IU/L or more of ALT
[2] = system: Mice (C57/B6J) fed with high-fat food
Description: Mice (C57/B6J, 8 weeks old male) were divided into 4 groups (5 animals each), and the first group (DB) was freely fed with ordinary food (Certified Diet “MF” manufactured by Oriental Yeast Co., ltd.). The second group (HFD) was freely fed with high-fat food (High Fat Diet 32, manufactured by CLEA Japan, Inc.), […].
When the mouse was 20 weeks old, the body weight, the liver weight, the serum aspartate aminotransferase (AST), the alanine aminotransferase (ALT), the serum triglyceride (TG), the free fatty acid value (FFA) and the total cholesterol value (T-cho) were measured.

[3] = HFD6 and HFD60 groups in comparison to the HFD group, 20 weeks old
[4] = high-fat food mice, glutathione 6 or 60 mg/kg/day in water, 20 weeks old

Q: For `N[C@@H](CCC(=O)N[C@@H](CS)C(=O)NCC(=O)O)C(=O)O` [glutathione], which “Effect of the present invention (ALT criterion)” value ([1]; Case IDs 10 to 16, 300 mg per day oral) is on record?
A: not affected

Q: What about the “FibroScan (after treatment) CAP” value ([1]; after treatment, oral glutathione 300 mg per day, one value per subject (Case ID)) of the same molecule?
A: 280 dBe

Q: What about the “FFA (free fatty acid value)” value [2, 3] of the same molecule?
A: significant decrease

Q: What about the “T-cho (total cholesterol value)” value [2, 3] of the same molecule?
A: significant decrease

Q: What about the “TG (triglyceride value)” value [2, 3] of the same molecule?
A: significant decrease

Q: What about the “serum ALT” value [2, 3] of the same molecule?
A: significant decrease

Q: What about the “serum AST” value [2, 3] of the same molecule?
A: significant decrease

Q: What about the “deposition of fat on the liver by high-fat food” value ([2]; high-fat food mice, glutathione 6 or 60 mg/kg/day in water) of the same molecule?
A: suppressed

Q: And the liver weight [2, 4]?
A: decreased dependently on the concentration

Q: What about the “ratio of liver weight/body weight” value [2, 4] of the same molecule?
A: decrease of the body weight ratio was also recognized

From patent US20200289605A1, “COMPOSITION FOR IMPROVING OR PREVENTING NONALCOHOLIC FATTY LIVER” (KOHJIN LIFE SCIENCES CO., LTD., priority 2015, published 2020)
